The record followed here is PubChem BioAssay AID179 (DTP/NCI, 2004).

“And” between values parts separate entries of the source, which are not always exact repeats. Identical values can stand only once. The source made the active and inactive calls.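 The calls were made as follows: active = compounds giving half or more protection of infected cells from virus-caused growth loss, again on retest; inactive = the rest.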

The test system of the assay is CEM cells HIV-1 protection, formazan growth assay. As to the kind of experiment: NCI AIDS Antiviral Assay. To be noted: for IC50: measured here: growth of uninfected CEM cells. Summed up: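 CEM (human) cells, HIV-1 infected vs uninfected, 5-point dosing, formazan growth read-out. Retest threshold 50% protection.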

Consider `O=Nc1ccc(Cl)cc1C(=O)c1ccccc1`, for which the EC50 – broadly, the midpoint of the concentration-response curve – was greater than 200 µM and the IC50 (in general, the concentration at which inhibition is half-maximal) came out at 32.4 µM. As to `O=C1/C(=C\c2ccc(Cl)cc2)SC2SC=C(c3ccc([N+](=O)[O-])cc3)N12` (stereo unspecified), the EC50 is greater than 200 µM and the half-inhibitory concentration (IC50) was 26.3 µM. For the compound `C[N+]12C(=O)CC3OCC=C4C[N+]5(C)CCC6(c7ccccc71)C2C3C4CC65O` (stereo unspecified), the EC50 is greater than 398 µM and the IC50 is 224 µM. For the compound `CC1=Nc2c([nH]c(=S)[nH]c2=O)NC(c2c(Cl)cccc2Cl)C1` (stereo unspecified), the EC50 was greater than 7.76 µM and the half-inhibitory concentration (IC50) was greater than 7.76 µM.

For the compound `O=C1CN(N2CCOCC2)CC(=O)N2CCCCN12`, the EC50 is 19.1 µM and the IC50 was greater than 200 µM. `CCOC(=O)c1ccc(CS(=O)(=O)c2ccc(N)cc2)c([N+](=O)[O-])c1`: the EC50 was greater than 100 µM and the IC50 is greater than 100 µM.

With `O=Cc1nc2ccccc2s1`, the result was inactive. For `COc1ccc(C2CC(=O)CC(c3ccc(OC)cc3)C23C(=O)NC(=O)NC3=O)cc1` (stereo unspecified), the EC50 is greater than 100 µM and the IC50 worked out at 40.7 µM.

Regarding `CC(=O)Oc1cc(C)c(Cl)c2c(OC(C)=O)cc(C(C)=O)c(O)c12`, the EC50 was greater than 200 µM and the IC50 amounted to 49 µM.

Turning to `C/C(=N\NS(=O)(=O)c1c(C)cc(C)cc1C)c1ccc[n+]([O-])n1`, the outcome was inactive. `C=C1C(=O)O[C@@H]2C[C@@H](C)[C@@H]3C=CC(=O)[C@@]3(C)[C@@H](O)[C@H]12`: the EC50 was greater than 9.55 µM and the IC50 was 0.513 µM. Consider `Cc1c2c(cc3c1C(=O)C(=O)C1=C3OCC1C)C(C)(C)CCC2` (stereo unspecified), for which the outcome was inactive. For the compound `CSCC(NP1(=O)SC(NN=C(C)C)=NC1(C)C)C(=O)O` (stereo unspecified), the EC50 is greater than 708 µM and the IC50 was greater than 708 µM. Turning to `O=C(O)/C(=C\c1cc2c(cc1[N+](=O)[O-])OCO2)c1cc2c(cc1Br)OCO2`, the EC50 is greater than 200 µM and the IC50 was determined as 110 µM. For `CCCCc1ccc(C(=O)O)nc1`, the result was inactive.

Take `Nc1ccccc1[S][Sn]([c]1ccccc1)([c]1ccccc1)[c]1ccccc1`: the EC50 was greater than 2 µM and the half-inhibitory concentration (IC50) is 0.324 µM. For the compound `CCCCCCCCCCCCCCCCCCCCOC1OC(CO)C(O)C(O)C1O` (stereo unspecified), the EC50 is greater than 3.63 µM and the IC50 is greater than 3.63 µM.

For the compound `C[N+]1(CCO)C2CCC1CC(O)C2` (stereo unspecified), the EC50 is greater than 200 µM and the IC50 was greater than 200 µM. Turning to `COc1ccc(C(=O)C(c2ccc(OC)cc2)C2(O)C(=O)Nc3c2ccc(Cl)c3C)cc1` (stereo unspecified), the EC50 was greater than 11.5 µM and the IC50 was greater than 11.5 µM. `Nc1ccc2ncc(Nc3ccc(Cl)c(Cl)c3)nc2c1`: the EC50 was greater than 8.91 µM and the concentration for half-maximal inhibition (IC50) was greater than 8.91 µM. With `CC1=NOC(=O)/C1=C/c1cccc2ccccc12`, the EC50 is greater than 1050 µM and the IC50 is greater than 1050 µM. Turning to `O=C1NC(=O)C2C3C=CC(C12)C1C2C(=O)NC(=O)C2C31` (stereo unspecified), the EC50 is greater than 95.5 µM and the half-maximal inhibitory concentration (IC50) is greater than 95.5 µM. Regarding `Cn1c(=O)cc(NNc2ccc(Cl)c(Cl)c2)[nH]c1=O`, the EC50 is greater than 200 µM and the 50% inhibitory concentration (IC50) is 3.09 µM. Consider `CCN(CC)CC(=O)Nc1ccc(C)c(Cl)c1`, for which the EC50 is greater than 200 µM and the IC50 was found to be 112 µM. The like results for `C/C(CC(=O)Nc1cccc(C)c1C)=N\NC(N)=S` were, in that order, greater than 468 µM and 245 µM.

For `CC(C#N)N(C(C)C#N)N(C)C` (stereo unspecified), the result was inactive. In the case of `O=c1ccn(C2OC(CN(O)CCC3C(CO)OC(n4ccc(=O)[nH]c4=O)C3O)C(O)C2O)c(=O)[nH]1` (stereo unspecified), the EC50 is greater than 200 µM and the concentration for half-maximal inhibition (IC50) came to 126 µM. Turning to `CCOC(=O)c1cc(=O)n(C)c(=O)n1C`, the outcome was inactive. As to `COCS(=O)(=O)c1ccccc1`, the EC50 is greater than 708 µM and the IC50 was greater than 708 µM. `C=CCCC1(CC(Sc2ccccc2)P(=O)(c2ccccc2)c2ccccc2)OCCO1` (stereo unspecified): the EC50 was greater than 200 µM and the IC50 is greater than 200 µM. Regarding `COC(=O)C1=C(C(=O)[C@H](Cc2ccccc2)NC(=O)c2ccccc2)CCC1`, the EC50 was greater than 95.5 µM and the IC50 stood at 89.1 µM.

As to `CCOC(=O)NNC(=O)C1CSC(c2ccccc2)N1C(C)=O` (stereo unspecified), the EC50 is greater than 200 µM and the IC50 is greater than 200 µM. Turning to `O=c1c(-c2ccc(O)cc2)coc2c(C3OC(CO)C(O)C(O)C3O)c(O)ccc12` (stereo unspecified), the EC50 was greater than 200 µM and the IC50 was greater than 200 µM. Turning to `COc1cccc(CCNc2c(C#N)c3nc4ccccc4n3c3ccccc23)c1`, the EC50 was greater than 200 µM and the IC50 came to 0.295 µM. As for `CC(C)C1=Cc2ccc3c(c2C(=O)C1=O)CCCC3(C)C`, the EC50 was greater than 18.6 µM and the IC50 stood at 2.95 µM. For `CC(C)c1ccc(C(=O)c2ccccc2C(=O)O)cc1`, the EC50 is greater than 200 µM and the half-maximal inhibitory concentration (IC50) was greater than 200 µM. For `S=C1NC2(CCCCC2)C2=C(CCCC2)S1`, the EC50 is greater than 141 µM and the IC50 turned out to be 12 µM. With `O=C(O)CNS(=O)(=O)c1ccc(NCc2ccccc2)cc1`, the outcome was inactive. On to `CCOC(=O)c1ccccc1NNC(=O)CCC(=O)O`, for which the EC50 is greater than 224 µM and the IC50 is 219 µM. Take `CCOC(=O)/C(=N\OC)C(O)C(F)(F)F` (stereo unspecified): the EC50 is greater than 200 µM and the IC50 is greater than 200 µM. Regarding `N#CCC(=O)N/N=C(\CCN1CCCC1)CC(c1ccccc1)c1c(O)c2ccccc2oc1=O` (stereo unspecified), the EC50 was greater than 97.7 µM and the IC50 was 55 µM. Turning to `c1ccc([P+](CCCCCCCC[P+](c2ccccc2)(c2ccccc2)c2ccccc2)(c2ccccc2)c2ccccc2)cc1`, the EC50 is greater than 100 µM and the IC50 turned out to be 1.23 µM. Consider `CCOc1ccc2nc(NC(=O)C(=O)C(C(=O)c3ccccc3F)C3OC(=O)c4ccccc43)sc2c1` (stereo unspecified), for which the EC50 is greater than 182 µM and the IC50 was determined as 8.13 µM. Consider `O=C(O)CCSSCCC(=O)O`, for which the EC50 was greater than 200 µM and the IC50 was greater than 200 µM. For the compound `Cc1ccc(C(=O)NCCCl)cc1C`, the outcome was inactive. For the compound `C=C(CCC(Cl)C(O)CO)[Si](C)(C)C` (stereo unspecified), the EC50 was greater than 110 µM and the IC50 is greater than 110 µM. For the compound `O=c1[nH]c2c3ccccc3ccc2c2cc3c(cc12)OCO3`, the result was inactive. In the case of `[C-]#[O+].[C-]#[O+].[C-]#[O+].[Cr].c1ccc(P(CC[PH+](CC[PH+](CC[PH+](c2ccccc2)c2ccccc2)c2ccccc2)c2ccccc2)c2ccccc2)cc1` (stereo unspecified), the EC50 is greater than 4.68 µM and the IC50 was greater than 4.68 µM.

With `COC(=O)C(/C(=N/NC(N)=O)C(=O)Nc1ccc(C)cc1)c1nc2ccc([N+](=O)[O-])cc2[nH]c1=O` (stereo unspecified), the EC50 was greater than 141 µM and the 50% inhibitory concentration (IC50) was greater than 141 µM.

In the case of `O=c1[nH]nc(-c2ccccc2)n1O`, the EC50 is greater than 200 µM and the IC50 was greater than 200 µM. Turning to `COc1cc2c(c(O)c1O)C(=O)C1CCC(=O)N1C2c1cccc2ccccc12` (stereo unspecified), the EC50 was greater than 50.1 µM and the IC50 was found to be 35.5 µM. Regarding `CCCCCC=C(c1cc(Cl)c(OC)c(C(=O)O)c1)c1cc(Cl)c(OC)c(C(=O)O)c1`, the EC50 is 129 µM and > 126 µM; the IC50 was 155 µM and 83.2 µM. In the case of `CCCCCCCCOCC(O)COC(C)C` (stereo unspecified), the EC50 is greater than 200 µM and the IC50 came to 115 µM. For `CN(C)Nc1cc(=O)[nH]c(=O)[nH]1`, the EC50 was greater than 200 µM and the IC50 is greater than 200 µM. Take `CC/C(=N/OC(=O)N(CC)CC)c1ccccc1`: the EC50 is greater than 200 µM and the IC50 came out at 117 µM.
